Assay results: patent publication US5952000A, “Fatty acid esters of lactic acid salts as permeation enhancers” (TheraTech, Inc., priority 1997, dated 1999)

What was measured:
[1] = In vitro skin flux, buspirone HCl from aqueous emulsion based acrylic PSA (Example 4); assay type: in vitro ADME, human
Protocol: Permeation enhancement of the potassium salt form of lauroyl lactylic acid (R.I.T.A. Corp., Woodstock, Ill.) in an aqueous emulsion based acrylic pressure sensitive adhesive (PSA) was evaluated using buspirone HCl as a model drug.

[2] = In vitro skin flux, buspirone free base from organic solvent based acrylic adhesive (Example 5); assay type: in vitro ADME, human; details: organic solvent based acrylic PSA
Protocol: Permeation enhancement of the potassium salt form of lauroyl lactylic acid using buspirone free base as a model drug was evaluated in an organic solvent based acrylic pressure sensitive adhesive.

[3] = In vitro skin flux, testosterone from saturated aqueous solution (Example 1)
Protocol: (§1) In vitro skin flux studies were conducted using human cadaver epidermal membrane in modified Franz non-jacketed diffusion cells. […] This method involves the exposure of the full-thickness skin to water at 60° C. for a time period of 60 seconds. After this period, the epidermal membrane was gently peeled off the dermis and stored for later use in aluminum foil at -5° C.
Permeation experiments with aqueous solutions were performed using pre-saturated drug solutions containing excess drug solid (infinite dose). Prior to skin permeation experiments, the epidermal membrane was allowed to hydrate over night as described above. […]
(§2) The following sampling procedure was used for all dosage forms. At predetermined sampling time points, the entire contents of the receiver compartment were collected for drug quantitation and the receiver compartment was filled with fresh solution, taking care to eliminate any air bubbles at the skin/solution interface. The cumulative amount of drug permeated per unit area at any time t(Qt, μg/cm^2) was determined as follows: [formula] where CN is the concentration (μg/ml) of the drug in the receiver sample for the corresponding sample time, V is the volume of fluid in the receiver chamber (~6.3 cm^3), and A is the diffusional area of the cell (0.64 cm^2). […]

[4] = In vitro skin flux, estradiol from organic solvent based adhesive matrix (Example 3); assay type: in vitro ADME, human; details: organic solvent based acrylic PSA; vs free acid form
Protocol: Pressure sensitive adhesive matrix systems prepared according to the following steps. First, the solids content of the adhesive solution (water or organic solvent based) was determined by placing a known weight of solution in a weighed aluminum dish and evaporating the solvents overnight in a 70° C. convection oven. The solid adhesive content of the solution was calculated by dividing the adhesive solid weight after drying by the initial total solution weight. Next, a weighed quantity of adhesive solution was added to a glass bottle and the drug substance, permeation enhancer, and other excipients were weighed and added to the adhesive solution in a quantity necessary to achieve the desired dry matrix film composition. […]
The following sampling procedure was used for all dosage forms. At predetermined sampling time points, the entire contents of the receiver compartment were collected for drug quantitation and the receiver compartment was filled with fresh solution, taking care to eliminate any air bubbles at the skin/solution interface. The cumulative amount of drug permeated per unit area at any time t(Qt, μg/cm^2) was determined as follows: [formula] where CN is the concentration (μg/ml) of the drug in the receiver sample for the corresponding sample time, V is the volume of fluid in the receiver chamber (~6.3 cm^3), and A is the diffusional area of the cell (0.64 cm^2).

[5] = In vitro skin flux, diclofenac from adhesive matrix systems (Example 8); assay type: in vitro ADME, human
Protocol: The effect of fatty acid lactylate salts on the permeation of a model acidic drug from some copolymer adhesive matrix systems was evaluated using diclofenac, a non-steroidal anti-inflammatory. The following matrix systems were prepared to test the effect of fatty acid lactylate salts on the permeation of this acidic compound from copolymer adhesives: (a) Diclofenac acid at 1.8% (w/w) in Durotak 87-2516 (National Starch and Chemical, New Jersey), a solvent based acrylic adhesive, at 92.8% (w/w) (Formula 8-A); (b) sodium diclofenac at 2.0% (w/w) in Nacor 72-9965 (National Starch and Chemical Company, New Jersey), an aqueous emulsion based acrylic adhesive, at 98% (w/w) (Formula 8-C); sodium diclofenac at 2.0% (w/w) and Robond PS-20 (Rohm and Haas, Philadelphia, Pa.) an aqueous emulsion based acrylic adhesive, at 93.6% (w/w) with polyvinylpyrrolidone (PVP, Kollidon 90, BASF, New Jersey) at 2.0% (w/w) as a thickening agent (Formula 8-E).

[6] = In vitro skin flux, clonidine from adhesive matrix systems (Example 7); assay type: in vitro ADME, human
Protocol: Permeation enhancement by a fatty acid lactylate salt was also evaluated with the basic antihypertensive drug clonidine in both free base and HCl acid addition salt forms. […] (Formulas 7-B, 7-D, 7-F and 7-H respectively).

[7] = In vitro skin flux, testosterone from hydroalcoholic gel (Example 2)
Protocol: as §1
Permeation experiments with hydroalcoholic gels were performed using finite occluded doses. The occluded dose is an appropriate in vitro model for the application of a transdermal patch drug delivery system containing a liquid or gel reservoir.
Occluded dosing experiments were set-up according to the following procedure. […]
as §2

Compound: potassium lauroyl lactylate
- effectiveness as permeation enhancer (in words) [1]: unexpectedly effective permeation enhancer
- effectiveness as permeation enhancer (in words) [2]: not an effective permeation enhancers

Compound: CCCCCCCCCCCC(=O)OC(C)C(=O)OC(C)C(=O)[O-].[Na+] (centres unmarked) [sodium lauroyl lactylate]
- permeation enhancement (in words) [3]: significant permeation enhancement
- effectiveness as permeation enhancer (in words) [4]: less effective as a permeation enhancer than the free acid form
- increase in permeation, acid form of diclofenac ([5]; […] sodium lauroyl lactylate, Table 8-1): about 50%
- effectiveness as enhancer (in words) ([5]; all of the matrix systems tested): consistently effective enhancer
- increase of clonidine permeation over unenhanced counterpart ([6]; aqueous emulsion based matrix systems, Tables 7-1, 7-2, 7-3): about two fold
- effectiveness as enhancer (in words) ([6]; clonidine HCl, aqueous emulsion based matrix systems): consistently effective enhancer
- effectiveness as enhancer (in words) ([6]; clonidine base, organic solvent based adhesive matrix, Table 7-4): not an effective enhancer
- permeation enhancement (in words) [7]: significant permeation enhancement

Compound: CCCCCCCCCCCC(=O)OC(C)C(=O)O (centres unmarked) [lauroyl lactylic acid, reference compound]
- permeation enhancement (in words) [3]: significant permeation enhancement
- enhancement by free acid form compared with Formulas 8-D and 8-F (in words) ([5]; aqueous emulsion based adhesives, "will show"): significant reduction in enhancement
- enhancement by free acid form compared with Formula 8-B (in words) ([5]; solvent based adhesive, "will show"): somewhat comparable results
- permeation enhancement (in words) [7]: significant permeation enhancement
